The record followed here is patent US11759509B2, “WT1 antigen peptide conjugate vaccine” (Sumitomo Pharma Co., Ltd., priority 2013, dated 2023).

A short description of series [1]: physchem. The conditions noted are these: for solubility at 90 min: pH 6; for solubility thermodynamic at 90 min: pH 7.4.
Protocol: Measurement of Solubility
(§1) 75% aqueous solution of disodium hydrogen phosphate and 5.53% aqueous solution of citric acid were mixed, and respective buffers (pH 6.0 and 7.4) were prepared.
(§2) About 1 mg of a test product was measured, an isotonic buffer (0.5 mL) was added, and this was used as a test solution. The prepared test solution was shaken at room temperature for 90 min (shaking conditions: RECIPRO SHAKER SR-1N manufactured by TAITEC, Speed=8), centrifuged (15000 rpm, 5 min, room temperature), and the supernatant after centrifugation was used as a test solution.
(§3) About 1 mg of the test product was accurately measured, dissolved in 0.1% TFA water/acetonitrile=1/1, made the total amount 10 mL, and this was used as a standard solution of the test product.
(§4) The standard solution of the test product and the test solution were analyzed by HPLC (analysis conditions described in Table 59), and the solubility of the test product was calculated from the peak area ratio of the standard solution.
(§5) • column: ChemcoPack Quicksorb (4.6 mmφ×150 mm, 5 μm) manufactured by Chemco Scientific Co., Ltd. • mobile phase: SOLUTION A; 0.1% TFA water, SOLUTION B; 0.1% TFA acetonitrile solution • column temperature: room temperature • flow rate: 1 mL/min • detection wavelength: UV 254 nm, 230 nm (2 wavelength detection) • sample injection volume: 10 μL
Series [2] has as its target ERAP1 (Homo sapiens, UniProt Q9NZ08). The series can be described thus: Time-course changes of trimming of N-terminal amino acid by ERAP1. Type of series: biochemical. The conditions noted are these: room temperature. Here is the method:
Time-Course Changes of Trimming of N-Terminal Amino Acid by ERAP1
30 μl of ERAP1 (2.0 mg/ml) in PBS buffer solution was added to 258 μl of Tris·HCl buffer. DMSO solution (12.0 μl) of 10 mM each peptide was added to the aforementioned ERAP1 solution, and the mixture was blended well and stood at room temperature. 1.0, 2.0, 4.0, 8.0 hr later, 50 μl of a sample was added to 150 μl of MeOH to terminate the reaction, 25 μl was injected into UFLC (analysis conditions shown below), and AUC of the object peptide was determined. […] Concentration of SOLUTION B was raised from 1.0% to 70% from 0.0 min to 5.0 min • 2. Concentration of SOLUTION B was raised from 1.0% to 50% from 0.0 min to 5.0 min • object peptide: […]

Series [3] can be described thus: Measurement of solubility in isotonic buffer (pH 6.0 and 7.4). The conditions noted are these: isotonic disodium hydrogen phosphate/citric acid buffer.
Protocol: Measurement of Solubility
as §1, §2, §3, §4, §5

Positions of bridges follow the written chain, without caps; N, C: chain ends. Residues, ends and D or L forms follow the SMILES beside them. Chains are numbered I, II in the order given. No end group written: not given here.

ERAP1, sequence (Q9NZ08 whole entry): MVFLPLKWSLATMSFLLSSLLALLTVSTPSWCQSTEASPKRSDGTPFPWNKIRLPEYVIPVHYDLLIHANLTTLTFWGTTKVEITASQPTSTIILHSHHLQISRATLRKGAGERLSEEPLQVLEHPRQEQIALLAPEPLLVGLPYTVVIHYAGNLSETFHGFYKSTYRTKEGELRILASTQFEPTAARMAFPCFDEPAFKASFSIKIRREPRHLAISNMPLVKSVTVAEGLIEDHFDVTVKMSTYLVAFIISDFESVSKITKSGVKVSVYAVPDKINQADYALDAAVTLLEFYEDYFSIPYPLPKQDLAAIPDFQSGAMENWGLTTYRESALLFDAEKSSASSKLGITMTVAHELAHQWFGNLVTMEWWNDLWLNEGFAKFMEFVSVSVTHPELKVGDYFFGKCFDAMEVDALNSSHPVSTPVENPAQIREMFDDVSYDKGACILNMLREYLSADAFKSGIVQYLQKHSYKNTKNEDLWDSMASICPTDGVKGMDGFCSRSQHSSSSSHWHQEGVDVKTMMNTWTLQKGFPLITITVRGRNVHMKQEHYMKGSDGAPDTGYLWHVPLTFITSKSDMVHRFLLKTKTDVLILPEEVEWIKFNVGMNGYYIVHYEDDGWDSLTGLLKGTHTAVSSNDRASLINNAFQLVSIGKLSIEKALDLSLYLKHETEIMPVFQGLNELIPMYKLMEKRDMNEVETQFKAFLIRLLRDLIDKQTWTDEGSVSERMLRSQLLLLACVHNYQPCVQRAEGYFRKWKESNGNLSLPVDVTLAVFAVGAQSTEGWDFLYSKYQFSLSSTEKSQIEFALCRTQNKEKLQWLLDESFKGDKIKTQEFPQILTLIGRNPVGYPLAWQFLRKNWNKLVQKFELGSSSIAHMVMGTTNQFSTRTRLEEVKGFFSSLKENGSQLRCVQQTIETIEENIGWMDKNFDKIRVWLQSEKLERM

In series [1], `CSCC[C@H](NC(=O)[C@@H](N)CCCNC(=N)N)C(=O)N[C@@H](Cc1ccccc1)C(=O)N1CCC[C@H]1C(=O)N[C@@H](CC(N)=O)C(=O)N[C@@H](C)C(=O)N1CCC[C@H]1C(=O)N[C@@H](Cc1ccc(O)cc1)C(=O)N[C@@H](CC(C)C)C(=O)O` [SEQ ID NO: 2] returned a solubility at 90 min above 1000 µg/mL and a thermodynamic solubility at 90 min above 1000 µg/mL.

`CSCC[C@H](NC(=O)[C@H](CCCNC(=N)N)NC(=O)[C@@H](N)CSSC[C@H](N)C(=O)N[C@@H](CO)C(=O)N[C@@H](CC(C)C)C(=O)NCC(=O)N[C@@H](CCC(=O)O)C(=O)N[C@@H](CCC(N)=O)C(=O)N[C@@H](CCC(N)=O)C(=O)N[C@@H](Cc1ccc(O)cc1)C(=O)N[C@@H](CO)C(=O)N[C@H](C(=O)O)C(C)C)C(=O)N[C@@H](Cc1ccccc1)C(=O)N1CCC[C@H]1C(=O)N[C@@H](CC(N)=O)C(=O)N[C@@H](C)C(=O)N1CCC[C@H]1C(=O)N[C@@H](Cc1ccc(O)cc1)C(=O)N[C@@H](CC(C)C)C(=O)O` [formula (3)] (I: H-CRMFPNAPYL-OH / II: H-CSLGEQQYSV-OH; disulfide I:1-II:1): in series [1], the solubility at 90 min was above 1000 µg/mL and the solubility (thermodynamic) at 90 min was above 1000 µg/mL.

In series [1], `CSCC[C@H](NC(=O)[C@H](CCC(N)=O)NC(=O)[C@H](CC(N)=O)NC(=O)[C@H](Cc1c[nH]c2ccccc12)NC(=O)[C@@H](NC(=O)[C@H](Cc1ccc(O)cc1)NC(=O)[C@@H](N)CSSC[C@H](N)C(=O)N[C@@H](CCCNC(=N)N)C(=O)N[C@@H](CCSC)C(=O)N[C@@H](Cc1ccccc1)C(=O)N1CCC[C@H]1C(=O)N[C@@H](CC(N)=O)C(=O)N[C@@H](C)C(=O)N1CCC[C@H]1C(=O)N[C@@H](Cc1ccc(O)cc1)C(=O)N[C@@H](CC(C)C)C(=O)O)[C@@H](C)O)C(=O)N[C@@H](CC(N)=O)C(=O)N[C@@H](CC(C)C)C(=O)O` [formula (5)] (I: H-CRMFPNAPYL-OH / II: H-CYTWNQMNL-OH; disulfide I:1-II:1) displayed a solubility at 90 min of 511 µg/mL and a thermodynamic solubility at 90 min of 200 µg/mL.

In series [1], `CSCC[C@H](NC(=O)[C@H](CCC(N)=O)NC(=O)[C@H](CC(C)C)NC(=O)[C@H](Cc1c[nH]cn1)NC(=O)[C@H](CO)NC(=O)[C@H](CC(C)C)NC(=O)[C@H](CCCCN)NC(=O)[C@H](Cc1ccccc1)NC(=O)[C@H](Cc1ccc(O)cc1)NC(=O)[C@H](CCCNC(=N)N)NC(=O)[C@H](CCCCN)NC(=O)[C@H](CC(N)=O)NC(=O)[C@@H](N)CSSC[C@H](N)C(=O)N[C@@H](CCCNC(=N)N)C(=O)N[C@@H](CCSC)C(=O)N[C@@H](Cc1ccccc1)C(=O)N1CCC[C@H]1C(=O)N[C@@H](CC(N)=O)C(=O)N[C@@H](C)C(=O)N1CCC[C@H]1C(=O)N[C@@H](Cc1ccc(O)cc1)C(=O)N[C@@H](CC(C)C)C(=O)O)C(=O)N[C@@H](Cc1c[nH]cn1)C(=O)N[C@@H](CO)C(=O)N[C@@H](CCCNC(=N)N)C(=O)N[C@@H](CCCCN)C(=O)N[C@@H](Cc1c[nH]cn1)C(=O)N[C@H](C(=O)NCC(=O)O)[C@@H](C)O` [formula (6)] (I: H-CNKRYFKLSHLQMHSRKHTG-OH / II: H-CRMFPNAPYL-OH; disulfide I:1-II:1) registered a solubility at 90 min above 1000 µg/mL and a thermodynamic solubility at 90 min of 279 µg/mL.

In series [1], `CSCC[C@H](NC(=O)[C@H](CCC(N)=O)NC(=O)[C@H](CC(C)C)NC(=O)[C@H](Cc1c[nH]cn1)NC(=O)[C@H](CO)NC(=O)[C@H](CC(C)C)NC(=O)[C@H](CCCCN)NC(=O)[C@H](Cc1ccccc1)NC(=O)[C@H](Cc1ccc(O)cc1)NC(=O)[C@H](CCCNC(=N)N)NC(=O)[C@H](CCCCN)NC(=O)[C@H](CC(N)=O)NC(=O)[C@@H](N)CSSC[C@H](N)C(=O)N[C@@H](CCCNC(=N)N)C(=O)N[C@@H](CCSC)C(=O)N[C@@H](Cc1ccccc1)C(=O)N1CCC[C@H]1C(=O)N[C@@H](CC(N)=O)C(=O)N[C@@H](C)C(=O)N1CCC[C@H]1C(=O)N[C@@H](Cc1ccc(O)cc1)C(=O)N[C@@H](CC(C)C)C(=O)O)C(=O)N[C@@H](Cc1c[nH]cn1)C(=O)N[C@@H](CO)C(=O)N[C@@H](CCCNC(=N)N)C(=O)N[C@@H](CCCCN)C(=O)O` [formula (8)] (I: H-CNKRYFKLSHLQMHSRK-OH / II: H-CRMFPNAPYL-OH; disulfide I:1-II:1) returned a solubility at 90 min above 1000 µg/mL and a thermodynamic solubility at 90 min of 789 µg/mL.

Turning to `CSCC[C@H](NC(=O)[C@H](CCC(N)=O)NC(=O)[C@H](CC(C)C)NC(=O)[C@H](Cc1c[nH]cn1)NC(=O)[C@H](CO)NC(=O)[C@H](CC(C)C)NC(=O)[C@H](CCCCN)NC(=O)[C@H](Cc1ccccc1)NC(=O)[C@H](Cc1ccc(O)cc1)NC(=O)[C@H](CCCNC(=N)N)NC(=O)[C@H](CCCCN)NC(=O)[C@H](CC(N)=O)NC(=O)[C@@H](N)CSSC[C@H](N)C(=O)N[C@@H](C)C(=O)N[C@@H](CC(C)C)C(=O)N[C@@H](CC(C)C)C(=O)N1CCC[C@H]1C(=O)N[C@@H](C)C(=O)N[C@H](C(=O)N1CCC[C@H]1C(=O)N[C@@H](CO)C(=O)N[C@@H](CC(C)C)C(=O)O)C(C)C)C(=O)N[C@@H](Cc1c[nH]cn1)C(=O)N[C@@H](CO)C(=O)N[C@@H](CCCNC(=N)N)C(=O)N[C@@H](CCCCN)C(=O)N[C@@H](Cc1c[nH]cn1)C(=O)N[C@H](C(=O)NCC(=O)O)[C@@H](C)O` [formula (9)] (I: H-CNKRYFKLSHLQMHSRKHTG-OH / II: H-CALLPAVPSL-OH; disulfide I:1-II:1), in series [1], the solubility at 90 min was above 1000 µg/mL and the solubility (thermodynamic) at 90 min came out at 565 µg/mL.

In series [1], ALLPAVPSL [SEQ ID NO: 5] had a solubility at 90 min above 1000 µg/mL and a solubility (thermodynamic) at 90 min above 1000 µg/mL.

As to CALLPAVPSL [Example 3], in series [2], the “formation rate (%) of the peptide obtained by trimming, 1 hr later” value (from here on “formation rate (%) … 1 hr later”) is on record as 65.5%; the “formation rate (%) of the peptide obtained by trimming, 2 hr later” value (from here on “formation rate (%) … 2 hr later”) is 50.6%; the “formation rate (%) of the peptide obtained by trimming, 4 hr later” value (from here on “formation rate (%) … 4 hr later”) was 13.5%; the “formation rate (%) of the peptide obtained by trimming, 8 hr later” value (from here on “formation rate (%) … 8 hr later”) was 0%.

As to CNKRYFKLSHLQMHSRK [SEQ ID NO: 22], in series [1], the solubility at 90 min is above 1000 µg/mL and the thermodynamic solubility at 90 min is 931 µg/mL.

On to CNKRYFKLSHLQMHSRKH [SEQ ID NO: 23], for which, in series [1], the solubility at 90 min was above 1000 µg/mL and the thermodynamic solubility at 90 min worked out at 712 µg/mL.

In series [1], CNKRYFKLSHLQMHSRKHTG [SEQ ID NO: 24] displayed a solubility at 90 min above 1000 µg/mL and a thermodynamic solubility at 90 min of 556 µg/mL.

With CRVPGVAPTL [Example 4], in series [2], the “formation rate (%) … 1 hr later” value is 59.1%; the “formation rate (%) … 2 hr later” value was found to be 57.5%; the “formation rate (%) … 4 hr later” value stood at 30.1%; the “formation rate (%) … 8 hr later” value is 7.80%.

In the case of CSLGEQQYSV [Example 5], in series [2], the “formation rate (%) … 1 hr later” value came out at 77.6%; the “formation rate (%) … 2 hr later” value is recorded as 72.8%; the “formation rate (%) … 4 hr later” value was 46.0%; the “formation rate (%) … 8 hr later” value is listed as 7.90%.

For CYTWNQMNL [SEQ ID NO: 4], the solubility at 90 min in series [3] (pH 6) is 106 µg/mL. This compound also registered a thermodynamic solubility at 90 min in series [3] (pH 7.4) of 167 µg/mL.

In series [1], SLGEQQYSV [SEQ ID NO: 6] gave a solubility at 90 min above 1000 µg/mL and a solubility (thermodynamic) at 90 min above 1000 µg/mL.

What is called solubility is how much of the substance goes into solution per volume. What is called solubility (thermodynamic) is the concentration in solution at equilibrium with solid.
